Patent US20240057591A1, “ANTIMICROBIAL WET WIPES” (Kimberly-Clark Worldwide, Inc., priority 2021, published 2024)
Marks after values point to notes of the source that are not given here.

Experiments:
[1] = system: Burkholderia cepacia (ATCC 25416); test: Reduction of bacterial load by adding CO2 in a pressurized vessel (whipped cream dispenser), plate count after 72 hr; format: cell-based; conditions: for Recovered Bacteria, Average CFU/mL, With CO2: 72 hr, 25° C., n = 3
Protocol: Burkholderia cepacia (ATCC 25416) was grown overnight in 40 mL trypticase soy broth in 250 mL bottle shaken at 100 RPM at 30° C. […] 100 mL of either solution were placed in a whipped cream dispenser (670 mL total volume container), and then different amounts of carbon dioxide (CO2) were injected into the container.
100 mL of each solution were then placed in a 150 mL sterile plastic bottle (untreated control). Both samples were placed on a wrist action shaker for 2 hr at 100 rpm at room temperature (25° C.), and then placed on an orbital shaker for 70 hr at 100 rpm at room temperature (25° C.). The total time each sample was at room temperature (25° C.) was 72 hr. After 72 hr, each sample was plated on trypticase soy agar to enumerate bacterial growth after contact period.

[2] = pH measurements of preservative free wet wipe formulation after addition of CO2 and exposure to 1 atm (FIG. 5); format: physicochemical
Protocol: FIG. 5 is an exemplary embodiment depicting a graph of pH measurements of 100 mL of preservative free wet wipe formulation after addition of 8.2 g of CO2, and subsequent exposure to 1 atm (20° C.) in accordance with the present disclosure.

[3] = system: Burkholderia cepacia ATCC 25416; test: Reduction of bacterial load by continuous addition of CO2, plate count after contact time; format: cell-based; conditions: n = 2
Protocol: Each microbe was grown in specified growth conditions (Table 7) using 40 mL of broth media in a sterile 250 mL bottle shaken at 100 RPM. Each microbe was subcultured from broth culture to an agar plate and incubated in specified growth conditions (Table 7). […] 20 mL of reverse osmosis water solution with bacteria was dispensed to a 25 mL hydrothermal synthesis autoclave reactor vessel (25 mL total volume vessel) attached to a continuous CO2 delivery system. The vessels were left connected to the CO2 delivery system at specific contact times at room temperature (25-27° C.). 20 mL of reverse osmosis water with bacteria and filter sterilized reverse osmosis water (no bacteria) were placed in a 150 mL sterile plastic bottle (untreated controls). The untreated controls were left for the same contact time at room temperature (25-27° C.) as CO2 treated vessels. Each microorganism was plated on specified agar media (Table 7) to enumerate bacteria after contact period. Tables 8-10 show the bacterial load reduction achieved after continuous addition of pressurized gas comprising CO2 to contaminated reverse osmosis water or a contaminated solution of reverse osmosis water and Triton X-100.

[4] = system: Pseudomonas aeruginosa ATCC 9027; test: Reduction of microorganism load by continuous addition of CO2, plate count after contact time; format: cell-based; conditions: 300 psi CO2 continuously, reverse osmosis water, n = 2
Protocol: (§1) Each microbe was grown in specified growth conditions (Table 7) using 40 mL of broth media in a sterile 250 mL bottle shaken at 100 RPM. Each microbe was subcultured from broth culture to an agar plate and incubated in specified growth conditions (Table 7). 100 μL of bacterial or fungal suspension matching the turbidity of a 0.5 or 1 MacFarland Standard were added to 100 mL of filter-sterilized reverse osmosis water (final concentration approximately 1×10^6 or 5×10^1 CFU/mL). 20 mL of reverse osmosis water solution with bacteria was dispensed to a 25 mL hydrothermal synthesis autoclave reactor vessel (25 mL total volume vessel) attached to a continuous CO2 delivery system. The vessels were left connected to the CO2 delivery system at specific contact times at room temperature (25-27° C.). 20 mL of reverse osmosis water with bacteria and filter sterilized reverse osmosis water (no bacteria) were placed in a 150 mL sterile plastic bottle (untreated controls). The untreated controls were left for the same contact time at room temperature (25-27° C.) as CO2 treated vessels. Each microorganism was plated on specified agar media (Table 7) to enumerate bacteria after contact period. Tables 8-10 show the bacterial load reduction achieved after continuous addition of pressurized gas comprising CO2 to contaminated reverse osmosis water or a contaminated solution of reverse osmosis water and Triton X-100.

[5] = system: Candida albicans ATCC 10231; test: as above; format: cell-based; conditions: 300 psi CO2 continuously, reverse osmosis water, n = 2
Protocol: as §1

[6] = system: Staphylococcus aureus ATCC 6538; test: as above; format: cell-based; conditions: 300 psi CO2 continuously, reverse osmosis water, n = 2
Protocol: as §1

[7] = system: Escherichia coli ATCC 8739; test: as above; format: cell-based; conditions: 300 psi CO2 continuously, reverse osmosis water, n = 2
Protocol: as §1

SMILES: O=C=O [CO2, carbon dioxide]
- Recovered Bacteria, Average CFU/mL, With CO2 ([1]; 8.2 g of CO2 to 100 mL preservative-free wet wipe formulation, approximately 1 × 10^6 CFU/mL): <10 CFU/mL
- Recovered Bacteria, Average CFU/mL, With CO2 ([1]; 8.2 g of CO2 to 100 mL reverse osmosis water, approximately 1 × 10^6 CFU/mL): 1.1 × 10^3 CFU/mL
- Recovered Bacteria, Average CFU/mL, With CO2 ([1]; 8.2 g of CO2 to 100 mL reverse osmosis water, approximately 5 × 10^1 CFU/mL): <10 CFU/mL
- Recovered Bacteria, Average CFU/mL, With CO2 ([1]; 16.0 g of CO2 to 100 mL reverse osmosis water, approximately 1 × 10^5 CFU/mL): <10 CFU/mL
- Recovered Bacteria, Average CFU/mL, With CO2 ([1]; 23.7 g of CO2 to 100 mL reverse osmosis water, approximately 1 × 10^5 CFU/mL): <10 CFU/mL
- Microbial growth compared to no added CO2 ([1]; pressurized gas comprising carbon dioxide added to contaminated preservative-free wet wipe formulation): greatly reduced microbial growth
- Microbial growth compared to no added CO2 ([1]; pressurized gas comprising carbon dioxide added to contaminated water): greatly reduced microbial growth
- Reduction of pH of wet wipe formulation ([2]; 100 mL preservative free wet wipe formulation after addition of 8.2 g of CO2 (FIG. 5)): approximately 0.20 pH units
- Dissipation of solubilized CO2 from wet wipe formulation ([2]; after exposure to atmospheric conditions (1 atm, 20° C.; FIG. 5)): quickly dissipated
- Average Recovered CFU/mL, With CO2 ([3]; 100 psi CO2 continuously, reverse osmosis water and 0.2% (v/v) Triton X-100, approximately 1.0 × 10^4 inoculum, 15 minutes): 2.1 × 10^3 CFU/mL
- Average Recovered CFU/mL, With CO2 ([3]; 100 psi CO2 continuously, reverse osmosis water and 0.2% (v/v) Triton X-100, approximately 1.0 × 10^4 inoculum, 30 minutes): 1.2 × 10^3 CFU/mL
- Average Recovered CFU/mL, With CO2 ([3]; 100 psi CO2 continuously, reverse osmosis water and 0.2% (v/v) Triton X-100, approximately 1.0 × 10^4 inoculum, 60 minutes): 6.3 × 10^2 CFU/mL
- Average Recovered CFU/mL (Standard Deviation), With CO2 ([3]; 300 psi CO2 continuously, 20 mL reverse osmosis water, 0.5 hours): 5.0 × 10^5 (1.0 × 10^5) CFU/mL
- Average Recovered CFU/mL (Standard Deviation), With CO2 ([3]; 300 psi CO2 continuously, 20 mL reverse osmosis water, 1 hour): 4.5 × 10^5 (2.5 × 10^5) CFU/mL
- Average Recovered CFU/mL (Standard Deviation), With CO2 ([3]; 300 psi CO2 continuously, 20 mL reverse osmosis water, 1.5 hours): 5.0 × 10^5 (2.0 × 10^5) CFU/mL
- Average Recovered CFU/mL (Standard Deviation), With CO2 ([3]; 300 psi CO2 continuously, 20 mL reverse osmosis water, 2 hours): 3.1 × 10^4 (7.0 × 10^3) CFU/mL
- Average Recovered CFU/mL (Standard Deviation), With CO2 ([3]; 300 psi CO2 continuously, 20 mL reverse osmosis water, 2.5 hours): 8.0 × 10^3 (2.0 × 10^3) CFU/mL
- Average Recovered CFU/mL (Standard Deviation), With CO2 ([3]; 300 psi CO2 continuously, 20 mL reverse osmosis water, 3 hours): <1 (n/a) CFU/mL
- Average Recovered CFU/mL (Standard Deviation), With CO2 ([3]; 300 psi CO2 continuously, 20 mL reverse osmosis water, 6 hours): <1 (n/a) CFU/mL
- Average Recovered CFU/mL (Standard Deviation), With CO2 ([3]; 300 psi CO2 continuously, 20 mL reverse osmosis water, 24 hours): <1 (n/a) CFU/mL
- Average Recovered CFU/mL (Standard Deviation), With CO2 ([3]; Table 9: 100 psi CO2 (approx. 0.231 mol/L), reverse osmosis water, 2 hours): 2.3 × 10^4 (1.0 × CFU/mL
- Average Recovered CFU/mL (Standard Deviation), With CO2 ([3]; Table 9: 100 psi CO2 (approx. 0.231 mol/L), reverse osmosis water, 4 hours): 1.2 × 10^4 (4.0 × CFU/mL
- Average Recovered CFU/mL (Standard Deviation), With CO2 ([3]; Table 9: 100 psi CO2 (approx. 0.231 mol/L), reverse osmosis water, 6 hours): 1.2 × 10^4 (3.5 × CFU/mL
- Average Recovered CFU/mL (Standard Deviation), With CO2 ([3]; Table 9: 200 psi CO2 (approx. 0.463 mol/L), reverse osmosis water, 2 hours): 1.2 × 10^3 (1.5 × CFU/mL
- Average Recovered CFU/mL (Standard Deviation), With CO2 ([3]; Table 9: 200 psi CO2 (approx. 0.463 mol/L), reverse osmosis water, 4 hours): 1.0 × 10^2 (1.0 × CFU/mL
- Average Recovered CFU/mL (Standard Deviation), With CO2 ([3]; Table 9: 200 psi CO2 (approx. 0.463 mol/L), reverse osmosis water, 6 hours): 1.4 × 10^1 (<10) CFU/mL
- Average Recovered CFU/mL (Standard Deviation), With CO2 ([3]; Table 9: 300 psi CO2 (approx. 0.694 mol/L), reverse osmosis water, 2 hours): 9.0 × 10^2 (1.0 × CFU/mL
- Average Recovered CFU/mL (Standard Deviation), With CO2 ([3]; Table 9: 300 psi CO2 (approx. 0.694 mol/L), reverse osmosis water, 4 hours): 5.0 × 10^1 (5.0 × CFU/mL
- Average Recovered CFU/mL (Standard Deviation), With CO2 ([3]; Table 9: 300 psi CO2 (approx. 0.694 mol/L), reverse osmosis water, 6 hours): <10 (n/a) CFU/mL
- Average Recovered CFU/mL, With CO2 ([3]; Table 10: 300 psi CO2 continuously, reverse osmosis water, 2 Hours): 1.3 × 10^3 CFU/mL
- Average Recovered CFU/mL, With CO2 ([3]; Table 10: 300 psi CO2 continuously, reverse osmosis water, 4 Hours): 2.5 × 10^1 CFU/mL
- Average Recovered CFU/mL, With CO2 ([3]; Table 10: 300 psi CO2 continuously, reverse osmosis water, 6 Hours): <10 CFU/mL
- Average Recovered CFU/mL, With CO2 ([4]; 2 Hours): 3.5 × 10^2 CFU/mL
- Average Recovered CFU/mL, With CO2 ([4]; 4 Hours): <10 CFU/mL
- Average Recovered CFU/mL, With CO2 ([4]; 6 Hours): <10 CFU/mL
- Average Recovered CFU/mL, With CO2 ([5]; 2 Hours): 5.3 × 10^2 CFU/mL
- Average Recovered CFU/mL, With CO2 ([5]; 4 Hours): 1.0 × 10^2 CFU/mL
- Average Recovered CFU/mL, With CO2 ([5]; 6 Hours): <10 CFU/mL
- Average Recovered CFU/mL, With CO2 ([6]; 2 Hours): 6.0 × 10^2 CFU/mL
- Average Recovered CFU/mL, With CO2 ([6]; 4 Hours): 1.3 × 10^2 CFU/mL
- Average Recovered CFU/mL, With CO2 ([6]; 6 Hours): <10 CFU/mL
- Average Recovered CFU/mL, With CO2 ([7]; 2 Hours): 1.0 × 10^3 CFU/mL
- Average Recovered CFU/mL, With CO2 ([7]; 4 Hours): 2.5 × 10^2 CFU/mL
- Average Recovered CFU/mL, With CO2 ([7]; 6 Hours): <10 CFU/mL
